# Measured values: the supplement of paper PMC11208160
# Test: recombinant barcode read abundance after kanamycin selection (control-corrected) (log10(CPM+1)); higher = more efficient recombination; sequences stand for … in AGTGCAGAGAAAATCGGCCAGTTTTCTCTGCCTGCAGTCCGCATGCCGT…AGATTTATGCAGCGGACTGCCTTTCTCCCAAAGTGATAAACCGGACAGTATCATGGACCGGTTTTCCCGGTAATCCGTATTTGCAAGGTTGGTTTCACT; site = the 11-nt target
# Outline: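 Pooled oligos, each joining a target to an IS621 bridge RNA target-binding loop, were cloned and co-electroporated with a donor plasmid into E. coli. Selective plates carried chloramphenicol/ampicillin/kanamycin and 0.1 mM IPTG, while chloramphenicol/ampicillin LB agar served as control, with two replicates of each. Recombination efficiency rests on averaged, control-corrected counts per million of barcodes at recombinant junctions, shown as log10(CPM+1).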
# 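Also: IS621 recombinase and bridge RNA in Escherichia coli cells.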
row,Sequence,recombinant barcode read abundance (log10)
1,CAGGCGACTTGGGTTCTAACCTGTTGCCT (site CAGGCGCCTAG),0.556
2,CAGGCGACTTGGGTTCTAACCTGTTGCCT (site CAGGCGGCTAG),0
3,CAGGCGACTTGGGTTCTAACCTGTTGCCT (site CAGGCGTCTAG),0.394
4,CAGGGGACTTGGGTTCTAACCTGTTGCAC (site CAGGGGACTGT),2.38
5,CAGGGGACTTGGGTTCTAACCTGTTGCAC (site TCCAACCCTAA),0.0666
6,CAGGGTTCTTGGGTTCTAACCTGTTGCCT (site CAGGGTTCTAG),2.18
7,CAGGGTTCTTGGGTTCTAACCTGTTGCCT (site CCGGGTTCTAG),0.0396
8,CAGGGTTCTTGGGTTCTAACCTGTTGCCT (site CGGGGTTCTAG),0.12
9,CAGGGTTCTTGGGTTCTAACCTGTTGCCT (site CTGGGTTCTAG),0.21
10,CAGGTACCTTGGGTTCTAACCTGTTGCAT (site CAGGTACCTAT),3.14
11,CAGGTACCTTGGGTTCTAACCTGTTGCAT (site CAGGTACCTCT),0.864
12,CAGGTCCCTTGGGTTCTAACCTGTTGCCG (site ATACGTTCTAT),0.102
13,CAGGTCCCTTGGGTTCTAACCTGTTGCCG (site CAGGTCCCTCG),2.74
14,CAGGTGACTTGGGTTCTAACCTGTTGCGG (site CAGGTGACTCC),1.33
15,CAGGTGACTTGGGTTCTAACCTGTTGCGG (site GGATATCCTAA),0.0229
16,CAGTACGCTTGGGTTCTAACCTGTTGCCT (site CAGCAAGCTAG),0.31
17,CAGTACGCTTGGGTTCTAACCTGTTGCCT (site CAGTACGCTAG),0.652
18,CAGTATCCTTGGGTTCTAACCTGTTGCCT (site CAATATCCTAG),0.867
19,CAGTATCCTTGGGTTCTAACCTGTTGCCT (site CACTATCCTAG),0.0764
20,CAGTATCCTTGGGTTCTAACCTGTTGCCT (site CAGTATCCTAG),0.945
21,CAGTATCCTTGGGTTCTAACCTGTTGCCT (site CATTATCCTAG),0.096
22,CAGTGCTCTTGGGTTCTAACCTGTTGCCA (site CAATGCTCTAG),0.648
23,CAGTGCTCTTGGGTTCTAACCTGTTGCCA (site CAGTGCTCTTG),1.52
24,CAGTGTCCTTGGGTTCTAACCTGTTGCCG (site CAGTGTCCTCG),1.45
25,CAGTGTCCTTGGGTTCTAACCTGTTGCCG (site GAGCGTCCTCG),0.122
26,CATAACCCTTGGGTTCTAACCTGTTGCAT (site ATCGGATCTCG),0.0317

row,Sequence,recombinant barcode read abundance (log10)
1,CATAACCCTTGGGTTCTAACCTGTTGCAT (site CATAACCCTAT),1.84
2,CATCAGCCTTGGGTTCTAACCTGTTGCCT (site CATAAGCCTAG),0.206
3,CATCAGCCTTGGGTTCTAACCTGTTGCCT (site CATCAGCCTAG),0.547
4,CATCAGCCTTGGGTTCTAACCTGTTGCCT (site CATGAGCCTAG),0.306
5,CATCAGCCTTGGGTTCTAACCTGTTGCCT (site CATTAGCCTAG),0.0622
6,CATCCGGCTTGGGTTCTAACCTGTTGCCT (site CATCCGACTAG),0.317
7,CATCCGGCTTGGGTTCTAACCTGTTGCCT (site CATCCGCCTAG),0.0278
8,CATCCGGCTTGGGTTCTAACCTGTTGCCT (site CATCCGGCTAG),0.434
9,CATCCGGCTTGGGTTCTAACCTGTTGCCT (site CATCCGTCTAG),0.255
10,CATCCGTCTTGGGTTCTAACCTGTTGCTT (site CATCCCTCTAA),0.0222
11,CATCCGTCTTGGGTTCTAACCTGTTGCTT (site CATCCGTCTAA),1.24
12,CATCCTACTTGGGTTCTAACCTGTTGCAT (site CATCCTACTAT),0.665
13,CATCCTACTTGGGTTCTAACCTGTTGCAT (site CATCCTACTCG),0.0637
14,CATCCTACTTGGGTTCTAACCTGTTGCGG (site CATCCTACTCC),1.98
15,CATCCTACTTGGGTTCTAACCTGTTGCGG (site CATCCTCCTCA),0.0136
16,CATCGATCTTGGGTTCTAACCTGTTGCCT (site CATCGATCTAG),0.558
17,CATCGATCTTGGGTTCTAACCTGTTGCCT (site CATCTATCTAG),0
18,CATCGCACTTGGGTTCTAACCTGTTGCCT (site CATCGCACTAG),0.0933
19,CATCGCACTTGGGTTCTAACCTGTTGCCT (site CCTCGCACTAG),0.289
20,CATCGCACTTGGGTTCTAACCTGTTGCCT (site CGTCGCACTAG),0.153
21,CATCGCACTTGGGTTCTAACCTGTTGCCT (site CTTCGCACTAG),0.184
22,CATCGGACTTGGGTTCTAACCTGTTGCAG (site ACATAAGCTAG),0.139
23,CATCGGACTTGGGTTCTAACCTGTTGCAG (site CATCGGACTCT),1.48
24,CATCGTACTTGGGTTCTAACCTGTTGCAT (site CATCGTACTAT),0.00546
25,CATCGTACTTGGGTTCTAACCTGTTGCAT (site CCTCGGACTAT),0.0241
26,CATCTACCTTGGGTTCTAACCTGTTGCGG (site CATCTACCTCC),1.39

row,Sequence,recombinant barcode read abundance (log10)
1,CATCTACCTTGGGTTCTAACCTGTTGCGG (site TTGGATACTTG),0.332
2,CATCTATCTTGGGTTCTAACCTGTTGCCT (site CATCGATCTAG),0.353
3,CATCTATCTTGGGTTCTAACCTGTTGCCT (site CATCTATCTAG),0.624
4,CATGACCCTTGGGTTCTAACCTGTTGCCT (site CAAGACCCTAG),0.993
5,CATGACCCTTGGGTTCTAACCTGTTGCCT (site CACGACCCTAG),0.774
6,CATGACCCTTGGGTTCTAACCTGTTGCCT (site CAGGACCCTAG),0.85
7,CATGACCCTTGGGTTCTAACCTGTTGCCT (site CATGACCCTAG),1.67
8,CATGATACTTGGGTTCTAACCTGTTGCCT (site ATCTTGTCTCC),0.0865
9,CATGATACTTGGGTTCTAACCTGTTGCCT (site CATGATACTAG),0.922
10,CATGCCTCTTGGGTTCTAACCTGTTGCCG (site CATGCCTCTCG),2.17
11,CATGCCTCTTGGGTTCTAACCTGTTGCCG (site GCAAGTCCTAC),0.227
12,CATGCGACTTGGGTTCTAACCTGTTGCGT (site AGCATCCCTCA),0.234
13,CATGCGACTTGGGTTCTAACCTGTTGCGT (site CATGCGACTAC),0.472
14,CATGCTACTTGGGTTCTAACCTGTTGCGT (site CATGCTACTAC),0.41
15,CATGCTACTTGGGTTCTAACCTGTTGCGT (site GATTCTACTAC),0.0988
16,CATGTACCTTGGGTTCTAACCTGTTGCCT (site AATGTACCTAG),0.0837
17,CATGTACCTTGGGTTCTAACCTGTTGCCT (site CATGTACCTAG),2.02
18,CATGTACCTTGGGTTCTAACCTGTTGCCT (site GATGTACCTAG),0.145
19,CATGTACCTTGGGTTCTAACCTGTTGCCT (site TATGTACCTAG),0.0813
20,CATTAGACTTGGGTTCTAACCTGTTGCCT (site AATTAGACTAG),0.356
21,CATTAGACTTGGGTTCTAACCTGTTGCCT (site CATTAGACTAG),0.423
22,CATTAGACTTGGGTTCTAACCTGTTGCCT (site GATTAGACTAG),0.195
23,CATTAGACTTGGGTTCTAACCTGTTGCCT (site TATTAGACTAG),0.08
24,CATTCAACTTGGGTTCTAACCTGTTGCCT (site CATTCAACTAG),0.133
25,CATTCAACTTGGGTTCTAACCTGTTGCCT (site CATTCAACTCG),0.115
